This note sets out measurements from PubChem BioAssay (NCI).

Values joined by “and” are separate entries in the source; they are usually repeats but may differ in a detail not shown here. Equal values may be shown once.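 Protocol summary: plate cells (96-well), add compound at 5 concentrations, incubate 48 h, interpolate endpoints linearly. The concentration for 50% growth inhibition is given as GI50. Definition used: TGI = concentration required for complete inhibition of growth.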 Where only a bound is given, the exact number is not on record here.

Among the test systems are EKVX NSCLC; HCC-2998 colon; HOP-62 NSCLC; K-562 leukemia; RXF 393 renal; SF-268 CNS; SK-MEL-5 melanoma; SNB-19 CNS; T-47D breast; TK-10 renal.
Common to all, as to assay: NCI-60 cell line screen, 48 h

Regarding `O=[N+]([O-])C(/C=C(\Cl)n1nnc2ccccc21)=C(/Cl)n1nnc2ccccc21`, the TGI with EKVX NSCLC, in the test on HCC-2998 colon, in the test on HOP-62 NSCLC, in the test on K-562 leukemia, in the test on RXF 393 renal and in the test on SF-268 CNS was more than 100 µM in each case. Further, the TGI in the test on SK-MEL-5 melanoma, with SNB-19 CNS, in the test with T-47D breast and in the test on TK-10 renal was more than 100 µM throughout.
With `CN(C)CCSC1=Nc2ccc(Cl)cc2C(c2ccccc2Cl)=NC1`, the GI50 is 14.8 µM and 43.4 µM with EKVX NSCLC; 13.4 µM and > 100 µM with HCC-2998 colon; 15.8 µM and > 100 µM in the test on HOP-62 NSCLC; 13.9 µM and 99.4 µM in the test on SF-268 CNS; 15 µM and 43.3 µM in the test with SK-MEL-5 melanoma; 17.1 µM and > 100 µM with SNB-19 CNS. Further, the GI50 with T-47D breast was 19.2 µM and 78.3 µM; in the test on TK-10 renal, 17.5 µM and 63.4 µM. Further, the TGI with EKVX NSCLC is 29.9 µM and > 100 µM; with HCC-2998 colon it was 30.3 µM and > 100 µM; in the test on HOP-62 NSCLC, 32.1 µM and > 100 µM; in the test on K-562 leukemia, more than 100 µM; with RXF 393 renal, 15.9 µM and > 100 µM; with SF-268 CNS, 28.2 µM and > 100 µM. The TGI was 28.7 µM and > 100 µM with SK-MEL-5 melanoma; 31.1 µM and > 100 µM with SNB-19 CNS; 47.3 µM and > 100 µM with T-47D breast; 33.1 µM and > 100 µM with TK-10 renal.
On to `O=C1OC(O)[C@@H]2[C@H]1[C@H]1CC[C@@H]2O1` (stereo partly drawn), for which the GI50 in the test on EKVX NSCLC was more than 100 µM; with HCC-2998 colon, 2.19 µM; in the test with HOP-62 NSCLC, more than 100 µM; with K-562 leukemia it was more than 100 µM; in the test on RXF 393 renal, 57 µM; in the test on SF-268 CNS, more than 100 µM. The GI50 in the test on SK-MEL-5 melanoma is 68.2 µM; with SNB-19 CNS, more than 100 µM; in the test on T-47D breast, 15.2 µM; in the test on TK-10 renal, 27.3 µM. Also, the TGI in the test with EKVX NSCLC was more than 100 µM; with HCC-2998 colon, 4.41 µM; in the test with HOP-62 NSCLC, more than 100 µM; in the test with K-562 leukemia it was more than 100 µM; with RXF 393 renal, more than 100 µM; with SF-268 CNS it was more than 100 µM. In addition, the TGI in the test with SK-MEL-5 melanoma is more than 100 µM; with SNB-19 CNS, more than 100 µM; in the test with T-47D breast it was 42.6 µM; with TK-10 renal it was 66.2 µM.
As to `COc1cccc(-c2nc(-c3ccc(NC(=O)C(C)C)cc3)[nH]c2-c2ccnc(Br)c2)c1`, the GI50 in the test on EKVX NSCLC was 2.43 µM; in the test with HCC-2998 colon it was 2.03 µM; in the test on HOP-62 NSCLC, 3.44 µM; in the test on K-562 leukemia it was 3.07 µM; in the test with RXF 393 renal it was 0.354 µM; in the test with SF-268 CNS, 4.07 µM. For the same molecule, the GI50 is 1.8 µM with SK-MEL-5 melanoma, 3.76 µM in the test on SNB-19 CNS, 2.56 µM in the test with T-47D breast and 4.35 µM in the test with TK-10 renal. Besides, the TGI was 8.01 µM in the test with EKVX NSCLC; 6.01 µM with HCC-2998 colon; more than 100 µM in the test with HOP-62 NSCLC; more than 100 µM in the test with K-562 leukemia; 1.46 µM with RXF 393 renal; more than 100 µM with SF-268 CNS. For the same molecule, the TGI was 3.32 µM with SK-MEL-5 melanoma, more than 100 µM with SNB-19 CNS, 11.5 µM in the test on T-47D breast and more than 100 µM in the test with TK-10 renal.
Turning to `COc1ccc(/C=C(/C#N)n2nnc3cccc(F)c32)cc1`, the GI50 in the test on EKVX NSCLC is 2.37 µM; with HCC-2998 colon, 1.83 µM; with HOP-62 NSCLC, 3.25 µM; with K-562 leukemia it was 0.352 µM; with RXF 393 renal, 1.3 µM; with SF-268 CNS it was 2.31 µM. The GI50 was 0.877 µM in the test with SK-MEL-5 melanoma, 2.38 µM in the test on SNB-19 CNS, 0.503 µM in the test on T-47D breast and 3.18 µM with TK-10 renal. In addition, the TGI in the test with EKVX NSCLC is more than 100 µM; in the test on HCC-2998 colon, 7.14 µM; in the test on HOP-62 NSCLC it was more than 100 µM; in the test with K-562 leukemia, more than 100 µM; with RXF 393 renal, 6.37 µM; in the test with SF-268 CNS, more than 100 µM. The TGI with SK-MEL-5 melanoma was 5.46 µM; in the test on SNB-19 CNS, 82.1 µM; in the test with T-47D breast, more than 100 µM; in the test with TK-10 renal it was 47.2 µM.
For the molecule `OCc1ccc(-c2ccc(-c3ccc(CO)s3)o2)s1`, the TGI with EKVX NSCLC was more than 96.4 µM; with HCC-2998 colon, 4.02 µM; with HOP-62 NSCLC it was 17.2 µM; with K-562 leukemia it was 38.3 µM; in the test with RXF 393 renal it was 1.77 µM; in the test with SF-268 CNS, more than 97.1 µM. In addition, the TGI in the test with SK-MEL-5 melanoma was 69.7 µM; with SNB-19 CNS, more than 100 µM; in the test on T-47D breast it was 7.59 µM; with TK-10 renal, 0.171 µM.
For the molecule `O=C(CSc1ccc(Cl)cc1)Nc1ccc(-c2nc3ccccc3s2)c(Cl)c1`, the GI50 is 4.1 µM in the test with EKVX NSCLC; 3.09 µM with HCC-2998 colon; 5.91 µM in the test with HOP-62 NSCLC; 4.14 µM with K-562 leukemia; 14.1 µM with RXF 393 renal; 3.24 µM in the test with SF-268 CNS. For the same molecule, the GI50 is 10.4 µM in the test with SK-MEL-5 melanoma, 4.31 µM in the test with SNB-19 CNS, 2.54 µM with T-47D breast and 5.3 µM in the test on TK-10 renal. The TGI with EKVX NSCLC is 40.3 µM; in the test on HCC-2998 colon, 16.3 µM; in the test with HOP-62 NSCLC it was 24.8 µM; in the test with K-562 leukemia, more than 100 µM; in the test on RXF 393 renal, 55.8 µM; with SF-268 CNS, 22.4 µM. In addition, the TGI in the test on SK-MEL-5 melanoma is 23 µM; in the test with SNB-19 CNS, 74.2 µM; in the test with T-47D breast, 8.63 µM; in the test with TK-10 renal it was 40 µM.
For `O=c1c2sccc2n(CC2COc3ccccc3O2)c(=O)n1O` (stereo not drawn), the GI50 is 35.3 µM with EKVX NSCLC; 7.6 µM in the test on HCC-2998 colon; 8.41 µM in the test with HOP-62 NSCLC; 4.1 µM in the test with K-562 leukemia; 3 µM in the test on RXF 393 renal; 13.6 µM with SF-268 CNS. Besides, the GI50 was 17.1 µM in the test with SK-MEL-5 melanoma, 12.8 µM in the test on SNB-19 CNS, 16.8 µM in the test on T-47D breast and 30.9 µM with TK-10 renal. Also, the TGI in the test on EKVX NSCLC was more than 100 µM; with HCC-2998 colon, more than 100 µM; with HOP-62 NSCLC, more than 100 µM; with K-562 leukemia, more than 100 µM; with RXF 393 renal, 9.7 µM; in the test on SF-268 CNS, more than 100 µM. The TGI with SK-MEL-5 melanoma is 61.1 µM; with SNB-19 CNS it was more than 100 µM; in the test with T-47D breast it was more than 100 µM; in the test with TK-10 renal it was more than 100 µM.
